Columns and labels:
[1] = system: pre-miR-21 WT; test: Microscale thermophoresis (MST) binding to pre-miR-21 WT
Method: (§1) Microscale Thermophoresis (MST) Binding Measurements. MST fluorescent measurements were performed on a Monolith NT.115 system (NanoTemper Technologies) using the fluorescence of a miR-21 hairpin (A+U Bulge): (5′ Cy5-[…]-3′) (SEQ ID NO: 1) or a miR-21 base paired control (5′ Cy5-[…]-3′) (SEQ ID NO: 2) which were purchased from IDT with RNase-free HPLC purification and used without further purification. The RNA (5 nM) was diluted in 1×MST Buffer (8 mM Na2HPO4, 190 mM NaCl, 1 mM EDTA, and 0.05% (v/v) Tween-20) and folded by heating at 60° C. for 5 min, and slowly cooling to room temperature. Compounds 1 and 2 were diluted in 1×MST Buffer, followed by 1:3 dilutions in 1×MST Buffer containing 5 nM RNA. […] Fluorescence measurements (Ex: 605-645 nm, Em: 680-685 nm) were performed at 10% LED and 80% MST power, with a Laser-On time of 30 s and Laser-Off time of 5 s. The data were analyzed by thermophoresis analysis and fitted by the quadratic binding equation in MST analysis software (NanoTemper Technologies). Dissociation constants were then determined by curve fitting using a single-site model. Normalized MST signal was calculated by normalizing the fluorescent signals using the MST data of 1 binding to pre-miR-21 WT with the lowest signal as 0 and the highest fluorescent signal as 1.

[2] = system: pre-miR-21 BP; test: MST binding to pre-miR-21 BP (base paired control); conditions: addition of 100 μM of compound
Method: as §1

[3] = system: MCF-10a cells; test: Boyden chamber invasion assay, MCF-10a; assay type: cell-based; conditions: for effect on invasion induced by overexpression of pre-miR-21: MCF-10a + pre-miR-21
Method: Boyden Chamber Invasion Assay. The MDA-MB-231, MDA-LM2, A375, A549, or MCF-10a cells (5×10^4) were seeded into Hanging Cell Culture Inserts for 24 well plates with uncoated membranes with 8.0 μm pores (Millicell) in serum free growth media. A 3 mg/mL layer (100 μL) of Matrigel (Fisher Scientific: CB40234) diluted with serum free growth media was prepared inside of each membrane. Cells were cultured as described above, with or without compound treatment, and allowed to invade towards complete growth media in the bottom well for 16-24 h before ending the experiment by removing the media in the bottom wells and inserts. The hanging cell culture inserts and bottom wells were washed twice with 1×PBS, gently shaking to mix. Excess liquid and cells inside the insert were removed with cotton swabs, after which 400 μL of 4% paraformaldehyde was placed into the bottom well and incubated for 20 min at room temperature to fix the cells. The wells and inserts were washed twice with 1×PBS and then treated with 400 μL of 0.1% crystal violet solution for 20 min at room temperature to stain the cells. The wells and inserts were washed twice with water, followed by one wash with 1×PBS. Inserts were dried with cotton swabs to remove extra stain and cells inside the insert, then were air-dried, followed by Brightfield microscopic analysis using a Leica DMI3000 B […] fluorescent microscope. Four different fields of view from each captured image were counted for crystal violet stained or unstained cells. Normalized cells invaded was calculated with equation 5 (Eq 5): […]
where stained cells represent cells counted with crystal violet stain observed in the compound treated or vehicle treated samples, respectively.

| enhancement of pre-miR-21 binding over the compound of Formula 1 [1] | SMILES | saturation of the binding isotherm [2] | effect on invasion induced by overexpression of pre-miR-21 [3] | effect on invasion induced by overexpression of pre-miR-21 ([3]; listed as Formula 5) | effect on invasion ([3]; MCF-10a, no pre-miR-21 overexpression) |
| --- | --- | --- | --- | --- | --- |
| 20 fold | CCCN(CC(=O)N(CCC)CC(=O)N(CCC)CC(=O)N(CC(N)=O)Cc1cn(CCCNC(=O)CCCOc2ccc(-c3nc4cc(-c5ccc(N6CCN(C)CC6)cc5)ccc4[nH]3)cc2)nn1)C(=O)CNCc1cn(CCCNC(=O)CCCOc2ccc(-c3nc4cc(-c5ccc(N6CCN(C)CC6)cc5)ccc4[nH]3)cc2)nn1 [Compound 2] | No saturation of the binding isotherm was observed |  |  |  |
|  | CCCN(CC(=O)N(CCC)CC(=O)N(CCC)CC(=O)N(CC(=O)NCCOCCOCCOCCOc1ccc(C=C2SC(Nc3ccccc3)=C(C(=O)OCC)C2=O)cc1O)Cc1cn(CCCNC(=O)CCCOc2ccc(-c3nc4cc(-c5ccc(N6CCN(C)CC6)cc5)ccc4[nH]3)cc2)nn1)C(=O)CN(Cc1cn(CCCNC(=O)CCCOc2ccc(-c3nc4cc(-c5ccc(N6CCN(C)CC6)cc5)ccc4[nH]3)cc2)nn1)C(C)=O [Compound 5] |  | decreased invasion | inhibited invasion | no effect on invasion |
